Patent EP0073849A1, “Novel phenyl-1,2,3,4-tetrahydrocarbazoles, their preparation and pharmaceutical compositions containing them” (priority 1981, dated 1983)

Assays:
[1] = tested on: rat muricide; test: rat muricide test; assay type: in vivo; conditions: ip, intraperitoneal administration
Excerpt: In the rat muricide test (based on the method of Horovitz et al., Int. J.

[2] = tested on: abnormal behaviour of beagles; test: improvement of abnormal behaviour in beagles; assay type: in vivo; conditions: Canis lupus familiaris, po; read-out: MED for improvement of abnormal behaviour in beagles
[3] = tested on: beagles with normal behaviour; test: in vivo; conditions: dog, po
[4] = tested on: behaviour, neurologic function, autonomic function; conditions: rat, in vivo, ip
[5] = in vivo; design: species or system beagles; conditions: dog, po
[6] = in vivo; conditions: rat, ip

| SMILES | ED50 [1] | minimal effective dose [2] | dose causing decreased motor activity and passivity [3] | dose causing decreased motor activity and passivity as multiple of the MED [3] | dose causing tremors and mydriasis [3] | dosage levels that cause changes in behaviour, in neurologic function or in autonomic function [4] | NOAEL at 6 h [5] | selectivity ratio [6] |
| --- | --- | --- | --- | --- | --- | --- | --- | --- |
| CN(C)CCC=C1c2ccccc2CCc2ccccc21 [Amitriptyline] | 5.2 mg/kg |  |  |  |  |  |  |  |
| CN(C)CCCN1c2ccccc2CCc2ccccc21 [Imipramine] | 6.4 mg/kg | 10 mg/kg | 30 mg/kg | three | 10 mg/kg | 30 mg./kg |  |  |
| COc1ccc2[nH]c3c(c2c1)CC(c1ccccc1)CC3 (stereo not drawn) [Test compound, 6-Methoxy-3-phenyl-1,2,3,4-tetrahydrocarbazole] | 1.7 mg/kg | 10 mg/kg |  |  |  | 100-1000 mg./kg | > 60 mg/kg | 50 to 500 |
